From US12612424B2, “HPK1 inhibitors and uses thereof” (Regor Pharmaceuticals, Inc., priority 2019, dated 2026)

Tests used:
[1] = biological target: HPK1 (Homo sapiens, UniProt Q92918); assay: HPK1 biochemical assay (ADP-GLO Kinase Assay); conditions: B*: testing performed in a first testing facility; read-out: HPK1 IC50 (nM) Relative, B*
Source text: IC50 values of any compounds can be determined accordingly over a range of inhibitor concentrations. In addition, the inhibitory effect of the compounds can also be assess using a biological assay, to determine the effect of the compounds on cytokine secretion by T cells following TCR and CD28 stimulation.
Biology Example 1 HPK1 Biochemical Assay
This example used the ADP-GLO™ Kinase Assay to measure the effect of potential HPK1 inhibitor compounds on HPK1 kinase activity.
The ADP-GLO™ Kinase Assay (Promega Corp., Madison, WI) measures ADP formed from a kinase reaction. According to the manufacture, the ADP formed in a kinase assay is first converted into ATP, which is then used to generate light in a luciferase reaction. The luminescence generated correlates with kinase activity. An exemplary experimental setting is described below, though minor adjustments can be made in individual assays.
Serial 3-fold dilution of compounds from 10 μM (top concentration) to 0.508 nM (lowest concentration). Positive control is 10 μM Reference+enzyme+substrate. Negative control is 1% DMSO+enzyme+substrate.
• 1. Buffer Preparation • 40 mM Tris pH7.5; 20 mM MgCl2, 0.1 mg/ml BSA, 50 μM DTT Buffer Stock
Add 20 mL 1M Tris and 10 mL 1M MgCl2 to 470 mL ddH2O to get buffer stock, and stock at RT. • 2. Preparing Fresh 1* Assay Buffer
• 3. Compounds Preparation • 1) The compounds were diluted to 1 mM, by mixing 10 μL of 10 mM respective compound stocks with 90 μL of DMSO. • 2) The compounds were then diluted 3-fold for 10 doses (5 μL to 10 μL dilution) by BRAVO. The top compound conc. was 1 mM (100×), DMSO Conc. was 100%. • 3) Transfer 100 nL of each diluted compound sample to 384-well plate (Corning-4512) by ECHO. • 4) Centrifuge the plate at 1,500 rpm for 1 minute. • 4. Preparation of 2×ATP-MBP Mixture: • 20 μM ATP, 0.2 μg/μL MBP in Kinase Buffer (final concentration: 10 μM ATP, 0.1 MBP)
• 5. Preparation of 2×HPK1 working solution with assay buffer. • HPK1 final concentration was 0.6 ng/μL. […] Incubate at 25° C. for 40 min. • 11. Record luminescence signal on an Envision plate reader (384-CTG). 5. Data Analysis
The percent (%) inhibition at each concentration of compound is calculated based on and relative to the signal in the High and Low control wells contained within each assay plate. […] The concentrations and % inhibition values for tested compounds were plotted and the concentration of compound required for 50% inhibition (IC50) was determined with a Three-parameter logistic dose response equation. The endpoint value (IC50) for the reference peptide/compound was evaluated in each experiment as a quality control measure. If the endpoint value was within 3-fold of the expected value, then the experiment was deemed acceptable.

[2] = biological target: T1, JAK3 (Homo sapiens, UniProt P52333); assay: JAK3 biochemical assay (ADP-GLO Kinase Assay); conditions: for IC50: B*: testing performed in a first testing facility, read-out: JAK3 IC50 (nM) Relative, B*; for JAKs/HPK1 IC50 Ratio, B*: ratio of JAK3 IC50 to HPK1 IC50, first testing facility
T1 construct: purchased Thermo fisher PV3855
Experimental: Biology Example 4 JAK3 Biochemical Assay
This example used the ADP-GLO™ Kinase Assay to measure the effect of potential HPK1 inhibitor compounds on JAK3 kinase activity. An exemplary experimental setting is described below, though minor adjustments can be made in individual assays.
3. Procedures • 1. Prepare JAK3 kinase buffer • Freshly adding DTT and BSA into Buffer (Final Conc.: 40 mM Tris pH7.5; 20 mM MgCl2, 0.1 mg/ml BSA, 50 μM DTT).
• 2. Compounds Preparation • For tested compounds: compounds were diluted to 1 mM, by mixing 5 μL of 10 mM compound stocks to 45 μL DMSO. The compounds solutions were then serially diluted 3-fold for 10 doses. The top compound concentration was 1 mM (100×), DMSO concentration was 100%. • 50 nL of each of 10 doses of diluted compound were added to 384-well assay plate (Corning #4512) by ECHO. • For positive control, 50 nL of 1 mM reference compound were added to 384-well assay plate (Corning #4512) by ECHO. • For negative control: 50 nL of DMSO was transferred into 384-well assay plate as a negative control. • The assay plate was centrifuged at 1,500 rpm for 1 minute. • 3. Compounds were Transferred by ECHO Following the Layout Below: • Reference and test compounds 1-15: serial 3-fold dilution from 10 μM to 0.508 nM (10 doses); negative control is 0.78 ng JAK3, 4 μM ATP & 0.2 μg/μL poly, 1% DMSO; positive control is the top dose of the reference compound, 0.78 ng JAK3, 0.2 μg/μL Poly(E4Y1), 4 μMATP, 1% DMSO. • 4. Add 2.5 μL/well of 2×JAK3 working solution using pipette (Thermo, 30 μL multi-channel), Centrifuge at 1,500 rpm for 1 minute. • 5. Add 2.5 μL/well of 2×ATP-Poly(E4Y1) working mixture using pipette (Thermo, 30 μL multi-channel), Centrifuge at 1,500 rpm for 1 minute. • 6. Incubate the assay plate at 25° C. for 60 min. • 7. Add 5 μL/well ADP-GLO™ Reagent by BRAVO to stop the kinase reaction and deplete the unconsumed ATP after 1 hour. Centrifuge at 1,500 rpm for 1 minute. Incubate at 25° C. for 40 min. • 8. Add 10 uL of Kinase Detection Reagent by BRAVO to convert ADP to ATP. Centrifuge at 1,500 rpm for 1 minute. Incubate at 25° C. for 40 min. • 9. Record luminescence signal on an Envision plate reader (384-USL). • 10. Process data using XL-fit. Inhibition %=[1-(test well−Negative control)/(positive control−Negative control)]*100%. 5. Data Analysis
The percent (%) inhibition at each concentration of compound is calculated based on and relative to the signal in the Negative and Positive control wells contained within each assay plate. The Negative control wells served as 0% inhibition, and the Positive control wells served as 100% inhibition. The concentrations and % inhibition values for tested compounds are plotted and the concentration of compound required for 50% inhibition (IC50) is determined with a Three-parameter logistic dose response equation. The endpoint value (IC50) for the reference peptide/compound is evaluated in each experiment as a quality control measure. If the endpoint value was within 3-fold of the expected value then the experiment was deemed acceptable.

T1 sequence (P52333 781-1124 limits assumed): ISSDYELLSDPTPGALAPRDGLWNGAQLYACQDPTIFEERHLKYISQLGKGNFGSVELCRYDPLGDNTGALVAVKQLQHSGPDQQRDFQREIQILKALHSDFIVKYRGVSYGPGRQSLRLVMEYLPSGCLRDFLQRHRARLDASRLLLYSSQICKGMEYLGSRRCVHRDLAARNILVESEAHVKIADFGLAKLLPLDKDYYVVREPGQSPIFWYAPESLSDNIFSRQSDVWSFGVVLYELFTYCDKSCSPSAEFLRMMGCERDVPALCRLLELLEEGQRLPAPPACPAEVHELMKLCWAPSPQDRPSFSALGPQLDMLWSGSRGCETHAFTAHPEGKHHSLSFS
Sequence of HPK1 (Q92918 whole entry): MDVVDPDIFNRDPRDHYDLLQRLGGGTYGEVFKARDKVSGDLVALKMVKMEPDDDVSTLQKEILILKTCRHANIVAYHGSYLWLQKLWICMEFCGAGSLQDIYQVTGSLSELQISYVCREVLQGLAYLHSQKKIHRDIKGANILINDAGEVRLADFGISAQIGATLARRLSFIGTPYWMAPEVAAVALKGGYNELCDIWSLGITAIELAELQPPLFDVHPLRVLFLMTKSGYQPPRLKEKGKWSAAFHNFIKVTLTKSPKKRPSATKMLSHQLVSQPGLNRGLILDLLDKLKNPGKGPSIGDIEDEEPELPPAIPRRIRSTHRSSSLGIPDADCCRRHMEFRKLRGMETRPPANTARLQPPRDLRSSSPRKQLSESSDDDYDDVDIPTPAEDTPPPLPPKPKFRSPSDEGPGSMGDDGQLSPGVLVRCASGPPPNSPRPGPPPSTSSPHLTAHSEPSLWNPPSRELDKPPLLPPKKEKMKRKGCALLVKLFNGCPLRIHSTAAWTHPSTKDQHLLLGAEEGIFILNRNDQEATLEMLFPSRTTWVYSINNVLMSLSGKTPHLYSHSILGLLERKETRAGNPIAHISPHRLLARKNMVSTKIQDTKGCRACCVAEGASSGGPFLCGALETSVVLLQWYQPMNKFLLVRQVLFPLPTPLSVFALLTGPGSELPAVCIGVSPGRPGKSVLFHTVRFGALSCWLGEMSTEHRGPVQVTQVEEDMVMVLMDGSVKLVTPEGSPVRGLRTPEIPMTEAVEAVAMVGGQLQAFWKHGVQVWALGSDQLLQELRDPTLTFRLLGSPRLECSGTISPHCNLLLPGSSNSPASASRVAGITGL

Row | IC50 [1] | IC50 [2] | JAKs/HPK1 IC50 Ratio, B* [2] | SMILES
1 | 100 to 500 nM |  |  | CCc1c[nH]c2ncc(-c3ccc(OC)c(P(C)(C)=O)c3)cc12 [Example 54, (5-(3-Ethyl-1H-pyrrolo[2,3-b]pyridin-5-yl)-2-methoxyphenyl)dimethylphosphine oxide]
2 | 100 to 500 nM | > 1000 nM | >82 | CCC(CC)COC(=O)Cc1cn(-c2nc(Nc3cc4c(cc3OC)CCN(C)C4)ncc2Cl)c2ccccc12 [Example 131, 2-Ethylbutyl 2-(1-(5-chloro-2-((6-methoxy-2-methyl-1,2,3,4-tetrahydroisoquinolin-7-yl)amino)pyrimidin-4-yl)-1H-indol-3-yl)acetate]
3 | ≤ 100 nM | > 1000 nM | 178 | COc1cc2c(cc1Nc1ncc(Cl)c(N3CCc4cc(Br)ccc43)n1)CN(C)CC2 [Example 85, N-(4-(5-bromoindolin-1-yl)-5-chloropyrimidin-2-yl)-6-methoxy-2-methyl-1,2,3,4-tetrahydroisoquinolin-7-amine]
4 | ≤ 100 nM | > 1000 nM | 433 | COc1cc2c(cc1Nc1ncc(Cl)c(-n3cc(C4(C(=O)O)CC4)c4ccccc43)n1)CN(C)CC2 [Example 143]
5 | > 1000 nM |  |  | COc1cc2c(cc1Nc1ncc3ncn(-c4ccccc4P(C)(C)=O)c3n1)CN(C)CC2 [Example 45, (2-(2-((6-Methoxy-2-methyl-1,2,3,4-tetrahydroisoquinolin-7-yl)amino)-9H-purin-9-yl)phenyl)dimethylphosphine oxide]
6 | ≤ 100 nM | > 1000 nM | 44 | CCc1c[nH]c2ncc(-c3ccc(C)c(P(C)(C)=O)n3)cc12 [Example 64, (6-(3-Ethyl-1H-pyrrolo[2,3-b]pyridin-5-yl)-3-methylpyridin-2-yl)dimethylphosphine oxide]
7 | 100 to 500 nM |  |  | COc1cc2c(cc1Nc1ncc(Cl)c(N3CCc4cccnc43)n1)CN(C)CC2 [Example 17, N-(5-chloro-4-(2,3-dihydro-1H-pyrrolo[2,3-b]pyridin-1-yl)pyrimidin-2-yl)-6-methoxy-2-methyl-1,2,3,4-tetrahydroisoquinolin-7-amine]
8 | 100 to 500 nM | > 1000 nM | 31 | COc1cc2c(cc1Nc1ncc(Cl)c(N3CCn4c3cccc4=O)n1)CN(C)CC2 [Example 31]
9 | 100 to 500 nM | > 1000 nM | 19 | CCc1c[nH]c2ncc(-c3ccc(-c4ncco4)c(P(C)(C)=O)c3)cc12 [Example 63, (5-(3-Ethyl-1H-pyrrolo[2,3-b]pyridin-5-yl)-2-(oxazol-2-yl)phenyl)dimethylphosphine oxide]
10 | ≤ 100 nM | > 1000 nM | 59 | CCc1c[nH]c2ncc(-c3ccc(N)c(P(C)(C)=O)n3)cc12 [Example 75, (3-Amino-6-(3-ethyl-1H-pyrrolo[2,3-b]pyridin-5-yl)pyridin-2-yl)dimethylphosphine oxide]
11 | 100 to 500 nM |  |  | COc1cc2c(cc1Nc1ncc(Cl)c(N3CCc4c(Cl)cccc43)n1)CN(C)CC2 [Example 12, N-(5-chloro-4-(4-chloroindolin-1-yl)pyrimidin-2-yl)-6-methoxy-2-methyl-1,2,3,4-tetrahydroisoquinolin-7-amine]
12 | 100 to 500 nM |  |  | COc1cc2c(cc1Nc1ncc(Cl)c(-c3ccnc4ccccc34)n1)CN(C)CC2 [Example 49, N-(5-chloro-4-(quinolin-4-yl)pyrimidin-2-yl)-6-methoxy-2-methyl-1,2,3,4-tetrahydroisoquinolin-7-amine]
13 | 100 to 500 nM |  |  | CCc1c[nH]c2ncc(-c3ccc(NC)c(P(C)(C)=O)c3)cc12 [Example 71, (5-(3-Ethyl-1H-pyrrolo[2,3-b]pyridin-5-yl)-2-(methylamino)phenyl)dimethylphosphine oxide]
14 | 500 to 1000 nM |  |  | CCc1c[nH]c2ncc(-c3cc(C)cc(P(C)(C)=O)c3)cc12 [Example 56, (3-(3-Ethyl-1H-pyrrolo[2,3-b]pyridin-5-yl)-5-methylphenyl)dimethylphosphine oxide]
15 | 100 to 500 nM |  |  | COc1cc2c(cc1Nc1ncc3ccc(P(C)(C)=O)cc3n1)CN(C)CC2 [Example 172]
16 | 100 to 500 nM |  |  | COc1cc2c(cc1Nc1ncc(Cl)c(N3CCc4ccccc4C3)n1)CN(C)CC2 [Example 5, N-(5-chloro-4-(3,4-dihydroisoquinolin-2(1H)-yl)pyrimidin-2-yl)-6-methoxy-2-methyl-1,2,3,4-tetrahydroisoquinolin-7-amine]
17 | ≤ 100 nM |  |  | CCc1c[nH]c2ncc(-c3ccc(Cl)c(P(C)(C)=O)c3)cc12 [Example 52, (2-Chloro-5-(3-ethyl-1H-pyrrolo[2,3-b]pyridin-5-yl)phenyl)dimethylphosphine oxide]
18 | ≤ 100 nM |  |  | COc1cc2c(cc1Nc1ncc3ccn(-c4cccnc4)c3n1)CN(C)CC2 [Example 40, 6-Methoxy-2-methyl-N-(7-(pyridin-3-yl)-7H-pyrrolo[2,3-d]pyrimidin-2-yl)-1,2,3,4-tetrahydroisoquinolin-7-amine]
19 | > 1000 nM |  |  | COc1cc2c(cc1Nc1ncc(Cl)c(-n3c(C(=O)N(C)C)cc4ccccc43)n1)CN(C)CC2 [Example 28]
20 | ≤ 100 nM |  |  | COc1cc2c(cc1Nc1ncc(Cl)c(N3CCc4ccccc43)n1)CN(C(=O)CN(C)C)CC2 [Example 26]
21 | 100 to 500 nM |  |  | CCc1c[nH]c2ncc(-c3cccc(P(C)(C)=O)c3)cc12 [Example 53, (3-(3-Ethyl-1H-pyrrolo[2,3-b]pyridin-5-yl)phenyl)dimethylphosphine oxide]
22 | 100 to 500 nM |  |  | CCc1c[nH]c2ncc(-c3ccc(N4CCCC4)c(P(C)(C)=O)c3)cc12 [Example 59]
23 | 100 to 500 nM |  |  | COc1cc2c(cc1Nc1ncc3c(n1)N(c1ccccc1)CCO3)CN(C)CC2 [Example 46, N-(6-methoxy-2-methyl-1,2,3,4-tetrahydroisoquinolin-7-yl)-8-phenyl-7,8-dihydro-6H-pyrimido[5,4-b][1,4]oxazin-2-amine]
